The text below walks through data of patent publication US20240409558A1, “IRREVERSIBLE INHIBITORS OF KRAS” (BIOMEA FUSION, INC., priority 2021, published 2024).

Molecules are shown by their SMILES. A value given as a limit tells only on which side of the number the result lay.

For this experiment, the system named is human KRAS G12C mutated cell line MIA PaCa-2. Description: Inhibition of proliferation of MIA PaCa-2 cells (CellTiter-Glo, 7 day). It is filed as cell-based. Particulars: 168 h, Table 3, 7 day, mean, read-out: MIA PaCa-2 IC50 (μM) 7 day Mean. From the text: The present example evaluates the ability of compounds provided herein to inhibit proliferation of KRAS mutant cells.
The proliferation inhibitory effect was investigated in the human KRAS G12C mutated cell line MIA PaCa-2 (Yunis et al., 1977, Int. J. Cancer 19(1):128-135; ATCC catalog no. CRL-1420). Cells were maintained in RPMI-1640 medium (ThermoFisher catalog no. 61870036) supplemented with 10% of Heat Inactivated FBS (ThermoFisher catalog no. A31605) and 1% Pen-Strep (ThermoFisher catalog no. 10378016) and cultured at 37° C. in a humidified incubator with 5% CO2. Cell lines were grown by adhering to culture flasks, and the cells were maintained in a range 70%-80% confluency.
ATP is present in all metabolically active cells and is considered as a marker for cell viability and proliferation. Metabolic cell activity was determined using the CellTiter-Glo kit (Promega catalog no. G7572), an ATP monitoring system based on the production of luminescence by the reaction of ATP with added UltraGlo® recombinant luciferase (Kawano et al., 2016, PLOS One, 8; 11(7):e0158888), according to the supplier's experimental recommendations. The assay was based on a 96 well plate format.
Test compounds were dissolved at 10 mM in DMSO (Sigma catalog no. D8418; purity >99.9%) and stored at −20° C. Eight concentrations of test compound were assessed in duplicate in an individual test occasion in parallel in the selected cell lines. MRTX-849 and AMG-510 were used as reference compounds and tested in duplicate at eight concentrations. 100% of proliferation is represented by the untreated cells (0.2% DMSO).
On the day of the experiment (TO), cells were detached with TrypLE (ThermoFisher catalog no. 12604054) and quantified using the Vi-CELL XR Cell Viability (Beckman Coulter) analyzer and diluted with fresh medium to obtain the cell density of about 1000 cells per 200 μL medium. 200 μL of cell suspension were added into wells in the 96 well plate.
After 2 hours from seeding cells, compounds were added using a D300e compound dispenser (Tecan Trading AG) at desired concentrations with shaking between each compound dispensed. Cell plates containing 200 μL/well were incubated at 37° C. in a humidified incubator with 5% CO2.
On day T3, 150 μL of growth media per well were removed from plates containing the samples, 150 uL fresh growth media were added to each well, and fresh compounds were added using a D300e compound dispenser (Tecan Trading AG) at desired concentrations with shaking between each compound dispensed. Cell plates containing 200 uL/well were incubated at 37° C. in a humidified incubator with 5% CO2. On day T7 plates containing the samples were equilibrated at room temperature for approximately 15 min, and then 40 μL/well of the Promega CellTiterGlo® reagent was added. Contents were mixed for 30 minutes on an orbital shaker to induce cell lysis. Luminescence was read using a Synergy Neo 2 (Agilent Technologies.
Data was expressed as % of inhibition compared to the 0.2% DMSO negative control, and is calculated as follows: % inhibition=100−[(RLU sample)×100/(RLU controls*)], where * indicates the average for 0.2% DMSO. […]
On the day of the experiment (TO), cells were detached with TrypLE (ThermoFisher catalog no. 12604054), quantified using the Vi-CELL XR Cell Viability (Beckman Coulter) analyzer and resuspended in fresh medium at a cell density of about 1000 cells per 200 μL medium. 200 μL of cell suspension were added to each well of a 96 well plate.
Two hours after seeding cells, compounds were added at desired concentrations using a D300e compound dispenser (Tecan Trading AG) with shaking after each compound addition. Assay plates were incubated at 37° C. in a humidified incubator with 5% CO2.
On day 3 (T3) 150 μL of medium from assay plates were removed. 150 μL fresh medium and compounds were added at desired concentrations using a D300e compound dispenser (Tecan Trading AG) with shaking after each compound addition. […]
In general terms: In ATP-based viability assays light output follows the ATP content of the culture.
`C=CC(=O)N1CCN(c2nc(OC[C@@]34CCCN3C[C@H](F)C4)nc3c(F)c(-c4cc(O)cc(Cl)c4C4CC4)ccc23)CC12CC2` [Compound 313, 1-[7-[7-(3-chloro-2-cyclopropyl-5-hydroxy-phenyl)-8-fluoro-2-[[(2R,8S)-2-fluoro-1,2,3,5,6,7-hexahydropyrrolizin-8-yl]methoxy]quinazolin-4-yl]-4,7-diazaspiro[2.5]octan-4-yl]prop-2-en-1-one]: the IC50 (in general, the midpoint of a concentration-inhibition curve) amounted to 0.0373 µM.

With `C=CC(=O)N1CCN(c2nc(OC[C@@]34CCCN3C[C@H](F)C4)nc3cc(-c4cc(O)cc(Cl)c4C4CC4)cnc23)CC12CC2` [Compound 314, 1-[7-[7-(3-chloro-2-cyclopropyl-5-hydroxy-phenyl)-2-[[(2R,8S)-2-fluoro-1,2,3,5,6,7-hexahydropyrrolizin-8-yl]methoxy]pyrido[3,2-d]pyrimidin-4-y1]-4,7-diazaspiro[2.5]octan-4-yl]prop-2-en-1-one], the IC50 is over 1 µM.

In the case of `C=CC(=O)N1CCN(c2nc(OC[C@@]34CCCN3C[C@H](F)C4)nc3cc(-c4cccc5cccc(Cl)c45)c(F)cc23)C2(CC2)C1` [Compound 315], the half-maximal inhibitory concentration (IC50) is over 1 µM.

Take `C=CC(=O)N1CCN(c2nc(OC[C@@]34CCCN3C[C@H](F)C4)nc3cc(-c4cc(O)cc(Cl)c4C4CC4)c(F)cc23)C2(CC2)C1` [Compound 316, 1-[4-[7-(3-chloro-2-cyclopropyl-5-hydroxy-phenyl)-6-fluoro-2-[[(2R,8S)-2-fluoro-1,2,3,5,6,7-hexahydropyrrolizin-8-yl]methoxy]quinazolin-4-yl]-4,7-diazaspiro[2.5]octan-7-yl]prop-2-en-1-one]: the concentration for half-maximal inhibition (IC50) was over 1 µM.

With `C=CC(=O)N1CCN(c2nc(OC[C@@]34CCCN3C[C@H](F)C4)nc3cc(-c4cc(O)cc(Cl)c4C4CC4)c(F)cc23)CC12CC2` [Compound 317, 1-[7-[7-(3-chloro-2-cyclopropyl-5-hydroxy-phenyl)-6-fluoro-2-[[(2R,8S)-2-fluoro-1,2,3,5,6,7-hexahydropyrrolizin-8-yl]methoxy]quinazolin-4-yl]-4,7-diazaspiro[2.5]octan-4-yl]prop-2-en-1-one], the IC50 was over 1 µM.

Take `C=CC(=O)N1C[C@H]2C[C@@H]1CN2c1nc(OC[C@@]23CCCN2C[C@H](F)C3)nc2cc(-c3cc(O)cc(Cl)c3C3CC3)c(F)cc12` [Compound 318, 1-[(1R,4R)-5-[7-(3-chloro-2-cyclopropyl-5-hydroxy-phenyl)-6-fluoro-2-[[(2R,8S)-2-fluoro-1,2,3,5,6,7-hexahydropyrrolizin-8-yl]methoxy]quinazolin-4-yl]-2,5-diazabicyclo[2.2.1]heptan-2-yl]prop-2-en-1-one]: the 50% inhibitory concentration (IC50) is over 1 µM.

In the case of `C=CC(=O)N1CCN(c2nc(OC[C@@]34CCCN3C[C@H](F)C4)nc3cc(-c4cc(O)cc(Cl)c4C4CC4)cnc23)C2(CC2)C1` [Compound 319, 1-[4-[7-(3-chloro-2-cyclopropyl-5-hydroxy-phenyl)-2-[[(2R,8S)-2-fluoro-1,2,3,5,6,7-hexahydropyrrolizin-8-yl]methoxy]pyrido[3,2-d]pyrimidin-4-yl]-4,7-diazaspiro[2.5]octan-7-yl]prop-2-en-1-one], the 50% inhibitory concentration (IC50) was over 1 µM.

Regarding `C=CC(=O)N1CCN(c2nc(OC[C@@]34CCCN3C[C@H](F)C4)nc3cc(-c4c(O)cccc4C4CC4)cnc23)[C@H](C)C1` [Compound 320, 1-[(3R)-4-[7-(2-cyclopropyl-6-hydroxy-phenyl)-2-[[(2R,8S)-2-fluoro-1,2,3,5,6,7-hexahydropyrrolizin-8-yl]methoxy]pyrido[3,2-d]pyrimidin-4-yl]-3-methyl-piperazin-1-yl]prop-2-en-1-one], the half-maximal inhibitory concentration (IC50) is over 1 µM.

As for `C=CC(=O)N1C2CCC1CN(c1nc(OC[C@@]34CCCN3C[C@H](F)C4)nc3cc(-c4cccc5cccc(Cl)c45)c(F)cc13)C2` [Compound 321, 1-[3-[7-(8-chloro-1-naphthyl)-6-fluoro-2-[[(2R,8S)-2-fluoro-1,2,3,5,6,7-hexahydropyrrolizin-8-yl]methoxy]quinazolin-4-y1]-3,8-diazabicyclo[3.2.1]octan-8-yl]prop-2-en-1-one], the IC50 was over 1 µM.

Consider `C=CC(=O)N1C[C@H]2C[C@@H]1CN2c1nc(OC[C@@]23CCCN2C[C@H](F)C3)nc2cc(-c3cccc4cccc(Cl)c34)c(F)cc12` [Compound 322, 1-[(1R,4R)-5-[7-(8-chloro-1-naphthyl)-6-fluoro-2-[[(2R,8S)-2-fluoro-1,2,3,5,6,7-hexahydropyrrolizin-8-yl]methoxy]quinazolin-4-y1]-2,5-diazabicyclo[2.2.1]heptan-2-yl]prop-2-en-1-one], for which the concentration for half-maximal inhibition (IC50) was over 1 µM.

Turning to `C=CC(=O)N1CCN(c2nc(OC[C@@]34CCCN3C[C@H](F)C4)nc3cc(-c4cccc5cccc(Cl)c45)c(F)cc23)CC12CC2` [Compound 323], the IC50 was over 1 µM.

In the case of `C=CC(=O)N1C2CCC1CN(c1nc(OC[C@@]34CCCN3C[C@H](F)C4)nc3cc(-c4cccc5cccc(Cl)c45)ccc13)C2` [Compound 324, 1-[3-[7-(8-chloro-1-naphthyl)-2-[[(2R,8S)-2-fluoro-1,2,3,5,6,7-hexahydropyrrolizin-8-yl]methoxy]quinazolin-4-y1]-3,8-diazabicyclo[3.2.1]octan-8-yl]prop-2-en-1-one], the half-inhibitory concentration (IC50) was over 1 µM.

Turning to `C=CC(=O)N1CCN(c2nc(OC[C@@]34CCCN3C[C@H](F)C4)nc3cc(-c4c(O)cccc4C4CC4)c(F)cc23)[C@H](C)C1` [Compound 325, 1-[(3R)-4-[7-(2-cyclopropyl-6-hydroxy-phenyl)-6-fluoro-2-[[(2R,8S)-2-fluoro-1,2,3,5,6,7-hexahydropyrrolizin-8-yl]methoxy]quinazolin-4-yl]-3-methyl-piperazin-1-yl]prop-2-en-1-one], the 50% inhibitory concentration (IC50) was found to be 0.0112 µM.

Turning to `C=CC(=O)N1C2CCC1CN(c1cc(OC[C@@]34CCCN3C[C@H](F)C4)nc3c(F)c(-c4cc(O)cc(Cl)c4C4CC4)ccc13)C2` [Compound 326], the IC50 was over 1 µM.

`C=CC(=O)N1C2CCC1CN(c1nc(OC[C@@]34CCCN3C[C@H](F)C4)nc3c(F)c(N4CC(O)Cc5cccc(Cl)c54)ncc13)C2` (stereo partly drawn) [Compound 328, 1-[3-[7-(8-chloro-3-hydroxy-3,4-dihydro-2H-quinolin-1-yl)-8-fluoro-2-[[(2R,8S)-2-fluoro-1,2,3,5,6,7-hexahydropyrrolizin-8-yl]methoxy]pyrido[4,3-d]pyrimidin-4-yl]-3,8-diazabicyclo[3.2.1]octan-8-yl]prop-2-en-1-one]: the half-inhibitory concentration (IC50) was over 1 µM.

In the case of `C=CC(=O)N1CCC(c2nc(OC[C@@]34CCCN3C[C@H](F)C4)nc3c(F)c(-c4cc(O)cc(Cl)c4C4CC4)ncc23)CC1` [Compound 329], the half-inhibitory concentration (IC50) is 0.0144 µM.

Turning to `C=CC(=O)N1CCC(c2nc(OC[C@@]34CCCN3C[C@H](F)C4)nc3c(F)c(-c4cc(O)cc5ccc(F)c(F)c45)ncc23)CC1` [Compound 330], the IC50 stood at 0.00664 µM.

With `C=CC(=O)N1CCC(c2nc(OC[C@@]34CCCN3C[C@H](F)C4)nc3c(F)c(-c4cc(O)cc5ccc(F)c(F)c45)ncc23)C[C@@H]1C` (stereo partly drawn) [Compound 331, 1-[(2S)-4-[7-(7,8-difluoro-3-hydroxy-1-naphthyl)-8-fluoro-2-[[(2R,8S)-2-fluoro-1,2,3,5,6,7-hexahydropyrrolizin-8-yl]methoxy]pyrido[4,3-d]pyrimidin-4-y1]-2-methyl-1-piperidyl]prop-2-en-1-one], the half-inhibitory concentration (IC50) amounted to 0.0373 µM.
